Data: patent US20230349907A1, “BIOPROBES FOR LYSYL OXIDASES AND USES THEREOF” (Pharmaxis Ltd., priority 2020, published 2023)
Where “and” joins values, the source holds several entries; their conditions need not be identical. Equal values may be shown once. Where a name gives a salt, the structure may show the parent alone.

Columns and labels:
[1] = target: T1, rhLOXL2 (Homo sapiens (Human), UniProt Q9Y4K0); assay: LOXL2 inhibition, peroxidase-coupled Amplex Red assay; format: biochemical; conditions: 30 min preincubation at 37° C.
T1 sequence (Q9Y4K0 26-774): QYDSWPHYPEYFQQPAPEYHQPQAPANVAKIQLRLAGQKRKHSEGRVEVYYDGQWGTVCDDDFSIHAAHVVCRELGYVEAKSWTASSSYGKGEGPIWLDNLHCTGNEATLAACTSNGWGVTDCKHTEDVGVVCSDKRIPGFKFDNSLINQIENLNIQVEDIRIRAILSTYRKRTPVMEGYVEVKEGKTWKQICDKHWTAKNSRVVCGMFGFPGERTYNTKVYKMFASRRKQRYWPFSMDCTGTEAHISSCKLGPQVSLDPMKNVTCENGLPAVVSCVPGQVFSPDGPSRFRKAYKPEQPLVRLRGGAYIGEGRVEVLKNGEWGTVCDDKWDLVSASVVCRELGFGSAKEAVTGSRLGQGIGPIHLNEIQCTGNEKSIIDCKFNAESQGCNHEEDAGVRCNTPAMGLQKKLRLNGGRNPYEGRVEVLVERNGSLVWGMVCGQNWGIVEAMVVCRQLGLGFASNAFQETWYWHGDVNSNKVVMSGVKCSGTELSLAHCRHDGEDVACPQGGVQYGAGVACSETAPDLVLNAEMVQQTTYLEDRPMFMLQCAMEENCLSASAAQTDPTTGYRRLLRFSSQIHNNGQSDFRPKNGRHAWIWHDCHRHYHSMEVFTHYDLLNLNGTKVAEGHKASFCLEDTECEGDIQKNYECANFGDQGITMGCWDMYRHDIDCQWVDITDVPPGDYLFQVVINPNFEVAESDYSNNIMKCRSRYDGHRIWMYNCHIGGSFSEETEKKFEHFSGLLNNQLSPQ
Description: (§1) Method to Determine the Ability of Compounds of the Invention to Inhibit LOX and LOXL1-4 from Different Sources […] S., Trackman P. C. and Kagan H. M., Reaction of aortic lysyl oxidase with beta-aminoproprionitrile. J Biol Chem 1983; 258: 4331-4338). There are five LOX family members; these are LOX, LOXL1, LOXL2, LOXL3 and LOXL4. LOX and LOXL family members can be acquired as recombinant active proteins from commercial sources, or extracted from animal tissues like bovine aorta, tendons, pig skin; or prepared from cell cultures. The inhibitory effects of the compounds of the present invention were tested against the given LOX-LOXL preparation using a high-throughput coupled colorimetric method (Holt A. and Palcic M., A peroxidase-coupled continuous absorbance plate-reader assay for flavin monoamine oxidases, copper-containing amine oxidases and related enzymes. Nat. Protoc. 2006; 1: 2498-2505). The assay was developed using either 384 or 96 well format. […] Test compounds were dissolved in DMSO and tested in a Concentration Response Curve (CRC) with 11 data points, typically in the micromolar or nanomolar range after incubation with the enzyme for 30 min at 37° C. 25 μL of a reaction mixture containing twice the KM concentration of putrescine (Sigma Aldrich, e.g. 20 mM for LOX, or 10 mM for LOXL2 and LOXL3), 120 μM Amplex Red (Sigma Aldrich) and 1.5 U/mL horseradish peroxidase (Sigma Aldrich) prepared in 1.2 M urea, 50 mM sodium borate buffer (pH 8.2) were then added to the corresponding wells. The above volumes were doubled in the case of 96 well plates. The fluorescence (RFU) was read every 2.5 m n for 30 m u […], excitation 565 nm and emission 590 nm (Optima; BMG labtech). The slope of the kinetics for each well was calculated using MARS data analysis software (BMG labtech) and this value was used to deduce the IC50 value (Dotmatics).

[2] = target: Bovine LOX (Bos taurus (Bovine), UniProt P33072); assay: LOX inhibition, peroxidase-coupled Amplex Red assay; format: biochemical; conditions: 30 min preincubation at 37° C.
Sequence of Bovine LOX (P33072 170-418): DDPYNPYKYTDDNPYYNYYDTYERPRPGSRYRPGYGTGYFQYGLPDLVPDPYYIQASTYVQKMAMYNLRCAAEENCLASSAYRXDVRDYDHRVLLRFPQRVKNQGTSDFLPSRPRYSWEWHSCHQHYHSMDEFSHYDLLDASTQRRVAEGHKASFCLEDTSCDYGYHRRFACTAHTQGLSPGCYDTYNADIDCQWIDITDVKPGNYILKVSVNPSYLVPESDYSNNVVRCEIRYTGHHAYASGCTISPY
Description: as §1

[3] = target: Human LOXL3 (Homo sapiens (Human), UniProt P58215); assay: LOXL3 inhibition, peroxidase-coupled Amplex Red assay; format: biochemical; conditions: 30 min preincubation at 37° C.
Sequence of Human LOXL3 (P58215 26-753): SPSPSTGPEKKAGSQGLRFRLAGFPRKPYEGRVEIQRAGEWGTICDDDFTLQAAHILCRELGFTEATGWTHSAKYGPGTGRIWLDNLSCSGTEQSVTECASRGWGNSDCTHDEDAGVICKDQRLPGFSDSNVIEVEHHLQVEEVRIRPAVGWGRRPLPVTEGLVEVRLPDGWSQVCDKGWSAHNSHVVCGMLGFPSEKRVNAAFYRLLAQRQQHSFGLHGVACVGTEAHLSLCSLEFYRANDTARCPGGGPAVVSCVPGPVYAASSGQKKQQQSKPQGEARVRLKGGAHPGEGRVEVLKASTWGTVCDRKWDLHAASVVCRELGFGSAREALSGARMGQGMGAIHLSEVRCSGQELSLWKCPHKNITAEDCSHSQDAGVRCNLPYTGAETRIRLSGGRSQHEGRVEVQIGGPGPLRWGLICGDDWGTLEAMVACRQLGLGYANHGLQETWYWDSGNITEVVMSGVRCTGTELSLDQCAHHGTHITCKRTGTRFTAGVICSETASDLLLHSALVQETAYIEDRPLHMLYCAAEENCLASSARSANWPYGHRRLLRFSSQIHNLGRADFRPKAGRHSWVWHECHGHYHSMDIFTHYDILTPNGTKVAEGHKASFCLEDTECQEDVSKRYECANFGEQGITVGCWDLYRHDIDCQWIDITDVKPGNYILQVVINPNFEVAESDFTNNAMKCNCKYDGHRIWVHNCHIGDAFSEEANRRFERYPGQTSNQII
Description: (§2) Method to Determine the Ability of Compounds of the Invention to Inhibit LOX and LOXL1-4 from Different Sources […] S., Trackman P. C. and Kagan H. M., Reaction of aortic lysyl oxidase with beta-aminoproprionitrile. J Biol Chem 1983; 258: 4331-4338). There are five LOX family members; these are LOX, LOXL1, LOXL2, LOXL3 and LOXL4. LOX and LOXL family members can be acquired as recombinant active proteins from commercial sources, or extracted from animal tissues like bovine aorta, tendons, pig skin; or prepared from cell cultures. The inhibitory effects of the compounds of the present invention were tested against the given LOX-LOXL preparation using a high-throughput coupled colorimetric method (Holt A. and Palcic M., A peroxidase-coupled continuous absorbance plate-reader assay for flavin monoamine oxidases, copper-containing amine oxidases and related enzymes. Nat. Protoc. 2006; 1: 2498-2505). The assay was developed using either 384 or 96 well format. […] The fluorescence (RFU) was read every 2.5 m n for 30 m u at a range of temperatures from 37° C. to 45° C., excitation 565 nm and emission 590 nm (Optima; BMG labtech). The slope of the kinetics for each well was calculated using MARS data analysis software (BMG labtech) and this value was used to deduce the IC50 value (Dotmatics).

[4] = target: LOX in human serum (Homo sapiens (Human), UniProt P28300); assay: LOX Bioprobe Activity Assay (Simoa); format: biochemical
Sequence of LOX in human serum (P28300 169-417): as the sequence (P33072 170-418) above, with T10S, S29G, P49A, A64S, S80T, X84A, S142N, N188G, S224T, E231D counted along it
Procedure: The LOX Bioprobe Assay used a Simoa HD-1 analyzer and Simoa technology to run a 2-step digital immunoassay, to measure the activity of unbound LOX in human serum.
This assay used the same anti-LOX capture antibody as for the Protein Concentration Assay. The bioprobe (Compound 1-12) was diluted down to 130 μM in deionized H2O prior to being diluted in Detector Buffer. Before being loaded onto the analyzer, samples were diluted at least 6 fold in Assay Buffer (1% BSA, 0.25% Rabbit Serum, 2% PEG (20k MW), 0.55% Tween-20, 1×PBS; used to dilute samples, controls, and detector reagent). To determine the background signal, diluted samples were pre-incubated for 30 min with LOX inhibitor beta-aminoproprionitrile (BAPN).
In the LOX Bioprobe Activity 2-step immunoassay, target-antibody-coated paramagnetic beads (500k per mL) were combined with diluted sample and biotinylated detector-bioprobe ([…]) in the same incubation cuvette for 54 minutes. […]
A single-labeled target molecule results in sufficient fluorescent signal in 30 seconds to be detected and counted by the Simoa optical system. […] At higher target concentration, when most of the bead-containing wells have one or more labeled target molecules, the total fluorescence signal is proportional to the amount of target present in the sample. […]

[5] = target: T1, rhLOXL2; assay: antibody/bioprobe ELISA assay detecting rhLOXL2; format: binding
Procedure: Antibody A (AF2639) was conjugated to beads, bound to high protein binding plates (microlon 600, high binding, flat bottom, Greiner 655061 using coating buffer containing 71.5 mM NaHCO3 and 28.5 mM Na2CO3) overnight at 4° C. After washing with a mild detergent (0.05% Tween 20) to remove excess and unbound antibody, the beads or plates were then incubated with blocking solution (1-5% BSA/TBS) to block any free binding spots, for 1 hour at room temperature. The blocking solution was then removed and rhLOXL2 was added and incubated for 3 hours at 4° C. After washing (with a mild detergent) to remove excess/unbound protein, bioprobe Compound 1-1 (which is conjugated with biotin) was incubated for 2 hours at 37° C. at a concentration between IC50 to IC100 of the rhLOXL2 (as measured in a standard biochemical assay eg Amplex Red/Resorufin). After a washing step (with a mild detergent) streptavidin conjugated to horseradish peroxidase or an appropriate label was added and incubation was continued for 1 hour at room temperature. After an additional washing step (with mild TBS/tween detergent), a detection substrate (resorufin or TMB) was added followed by the fluorescence read at Excitation: 565 nm/Emmission: 590 nm or maximum absorbance at 450 nm. A suitable capture antibody will allow for bioprobe binding whilst providing a large signal.
FIG. 3 depicts the absorbance values (optical density 450 nm) from the antibody/bioprobe assay, using one antibody and Compound 1-1 (FIG. 3A) AF2639 was used as the capture antibody, rhLOXL2 was used as the antigen and 80 nM of Compound 1-1 was used as the detection. FIG. 3B) Fitzgerald 70R-12876 was used as the capture antibody, rhLOXL2 is used as the antigen and 80 nM of Compound 1-1 is used as the detection.
When the bioprobe contains two biotin moieties, the signal is more robust than a single biotin counterpart. […] AF2639 was used as the capture, rhLOXL2 was used as the antigen and 78 nM of Compound 1-12 was used for detection.

[6] = target: T1, rhLOXL2; assay: sandwich ELISA with bioprobe pre-incubated with rhLOXL2; format: binding; conditions: 400 nM bioprobe pre-incubated, 1250 ng/mL rhLOXL2, AF2639 capture, antibody C (C-AB179810) detection, FIG. 5
Procedure: A further aim was directed at determining whether the presence of bioprobe (Compound 1-1), pre-incubated and bound to the active site of rhLOXL2, would affect antibody binding and detection by sandwich ELISA. […] FIG. 5 depicts the absorbance values (optical density 460 nm) from the antibody/antibody assay, using two antibodies. Antibody A (AF2639) was used as the capture antibody, 1250 ng/mL rhLOXL2 was used as the antigen and antibody C (C-AB179810) was used as the detection antibody. 400 nM of Compound 1-1 was pre-incubated with rhLOXL2 before commencement of the ELISA assay.

[7] = target: Human LOXL1 (Homo sapiens (Human), UniProt Q08397); assay: LOXL1 inhibition, peroxidase-coupled Amplex Red assay; format: biochemical; conditions: 30 min preincubation at 37° C.
Sequence of Human LOXL1 (Q08397 96-574): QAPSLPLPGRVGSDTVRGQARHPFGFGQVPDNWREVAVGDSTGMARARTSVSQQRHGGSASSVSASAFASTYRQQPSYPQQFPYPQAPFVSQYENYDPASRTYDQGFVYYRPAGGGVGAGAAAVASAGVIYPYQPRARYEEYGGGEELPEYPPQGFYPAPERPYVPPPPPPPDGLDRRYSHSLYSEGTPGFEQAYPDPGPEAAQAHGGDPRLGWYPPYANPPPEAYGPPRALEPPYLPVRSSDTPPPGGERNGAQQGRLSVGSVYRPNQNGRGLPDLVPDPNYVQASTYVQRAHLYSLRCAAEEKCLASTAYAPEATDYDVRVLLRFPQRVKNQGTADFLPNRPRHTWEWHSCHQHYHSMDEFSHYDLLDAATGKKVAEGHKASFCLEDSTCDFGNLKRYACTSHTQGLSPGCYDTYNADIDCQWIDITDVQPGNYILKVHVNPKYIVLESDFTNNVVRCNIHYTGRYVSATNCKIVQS
Description: as §2

[8] = target: Human LOXL4 (Homo sapiens (Human), UniProt Q96JB6); assay: LOXL4 inhibition, peroxidase-coupled Amplex Red assay; format: biochemical; conditions: 30 min preincubation at 37° C.
Sequence of Human LOXL4 (Q96JB6 25-756): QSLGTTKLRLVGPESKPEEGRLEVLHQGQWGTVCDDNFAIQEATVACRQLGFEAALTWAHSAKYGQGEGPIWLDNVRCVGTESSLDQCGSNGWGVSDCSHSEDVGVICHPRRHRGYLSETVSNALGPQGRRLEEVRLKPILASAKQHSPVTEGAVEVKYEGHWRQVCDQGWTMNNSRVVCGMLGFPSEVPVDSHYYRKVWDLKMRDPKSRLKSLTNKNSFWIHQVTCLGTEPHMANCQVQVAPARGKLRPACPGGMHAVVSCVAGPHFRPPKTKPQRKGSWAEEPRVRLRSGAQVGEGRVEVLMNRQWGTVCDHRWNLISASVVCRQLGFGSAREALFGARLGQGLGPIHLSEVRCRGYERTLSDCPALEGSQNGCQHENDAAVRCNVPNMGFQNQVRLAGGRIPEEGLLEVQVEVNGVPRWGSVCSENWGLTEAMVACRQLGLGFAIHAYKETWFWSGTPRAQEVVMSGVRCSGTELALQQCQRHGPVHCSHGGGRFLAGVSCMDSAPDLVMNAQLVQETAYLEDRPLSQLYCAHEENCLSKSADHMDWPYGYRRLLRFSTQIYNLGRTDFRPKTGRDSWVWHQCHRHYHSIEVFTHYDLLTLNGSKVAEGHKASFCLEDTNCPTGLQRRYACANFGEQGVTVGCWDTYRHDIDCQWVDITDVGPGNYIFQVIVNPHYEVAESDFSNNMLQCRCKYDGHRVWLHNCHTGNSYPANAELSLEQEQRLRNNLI
Description: as §2

Row | SMILES | IC50 [1] | IC50 [2] | IC50 [3] | Average signal ([4]; human serum + CM (×100 diluted) + BAPN, bioprobe Compound 1-12) | effect of inhibitor on LOX bioprobe signal ([4]; human serum spiked with human fibroblast conditioned media) | effect of inhibitor on bioprobe rhLOXL2 signal ([5]; AF2639 capture, Compound 1-1 detection, FIG. 3A) | rhLOXL2 detection levels in the presence or absence of bioprobe [6] | rhLOXL2 signal by bioprobe detection (optical density 450 nm) ([5]; Antibody A (AF2639) as capture antibody, 80 nM bioprobe, FIG. 3A) | rhLOXL2 detection by bioprobe (optical density 450 nm) ([5]; Antibody B (Fitzgerald 70R-12876) as capture antibody, 80 nM bioprobe, FIG. 3B) | IC50 [7] | IC50 [8] | signal of bioprobe with two biotin moieties versus single biotin counterpart (optical density 460 nm) ([5]; AF2639 capture, 78 nM bioprobe, FIG. 4)
1 | CN(C)S(=O)(=O)c1ccc(C(OCc2ccc(-n3cc(CNC(=O)CCCC[C@@H]4SC[C@@H]5NC(=O)N[C@@H]54)nn3)cc2)c2cn(C/C(F)=C/CN)nn2)cc1 (stereo partly drawn) [Compound 1-15, N-((1-(4-(((1-((Z)-4-amino-2-fluorobut-2-en-1-yl)-1H-1,2,3-triazol-4-yl)(4-(N,N-dimethylsulfamoyl)phenyl)methoxy)methyl)phenyl)-1H-1,2,3-triazol-4-yl)methyl)-5-((3aS,4S,6aR)-2-oxohexahydro-1H-thieno[3,4-d]imidazol-4-yl)pentanamide hydrochloride] | < 300 nM | < 300 nM | < 300 nM | – | – | – | – | – | – | – | – | –
2 | N#CCCN [BAPN, β-aminopropionitrile] | – | – | – | 0.0093 and 0.0077 | significantly reduces the signal | the signal is ablated | – | – | – | – | – | –
3 | Cc1c(Cc2ccc(S(=O)(=O)N(C)C)cc2)c2cc(C(=O)N3CCN(C(=O)CCCC[C@@H]4SC[C@@H]5NC(=O)N[C@@H]54)CC3)ccc2n1C/C(F)=C/CN [Compound 1-1, 4-((1-((Z)-4-amino-2-fluorobut-2-en-1-yl)-2-methyl-5-(4-(5-((3aS,4S,6aR)-2-oxohexahydro-1H-thieno[3,4-d]imidazol-4-yl)pentanoyl)piperazine-1-carbonyl)-1H-indol-3-yl)methyl)-N,N-dimethylbenzenesulfonamide hydrochloride] | < 300 nM | > 300 nM | – | – | – | – | no difference in rhLOXL2 detection levels | shows a specific rhLOXL2 signal | prevents the detection of rhLOXL2 | – | – | –
4 | NC/C=C(\F)CS(=O)(=O)c1cccc(Cn2cc(-c3cc(OCCCc4cn(CCCCC[C@@H]5SC[C@@H]6NC(=O)N[C@@H]65)nn4)cc(OCCCc4cn(CCCCC[C@@H]5SC[C@@H]6NC(=O)N[C@@H]65)nn4)c3)nn2)c1 [Compound 1-12, (3aS,3a'S,4S,4'S,6aR,6a′R)-4,4′-(((((5-(1-(3-(((Z)-4-amino-2-fluorobut-2-en-1-yl)sulfonyl)benzil)-1H-1,2,3-triazol-4-yl)-1,3-phenylene)bis(oxy))bis(propane-3,1-diyl))bis(1H-1,2,3-triazole-4,1-diyl))bis(pentane-5,1-diyl))bis(tetrahydro-1H-thieno[3,4-d]imidazol-2(3H)-one) hydrochloride] | < 300 nM | > 300 nM | > 300 nM | – | – | – | – | – | – | > 300 nM | < 300 nM | more robust
